Experimental data as given in patent US20070141571A1, “Diagnostics and therapeutics for diseases associated with endothelial differentiation, sphingolipid g-protein-coupled receptor 6(edg6)” (BAYER HEALTHCARE AG, priority 2003, published 2007).

Assays:
[1] = test system: HEL/EDG6 platelet-like particles; assay: PF4 release from platelet-like particles; format: cell-based, human; settings: 100 nM PMA or 50 μM ADP 10 min; 0.5 units/ml thrombin 2 min; data not shown
Method: During propagation of HEL/EDG6, we observed an accumulation of small particles in the culture supernatant. They were harvested by two-step sedimentation centrifugation and analyzed. […] In order to investigate if the platelet-like particles were functional, they were stimulated and the release of Platelet Factor IV (PF4) was measured as a platelet functional marker. […] The low sensitivity to ADP raised a question about the full functionality of the particles as platelets. In order to examine whether it is due to lack of the appropriate ADP receptors, we performed RT-PCR analysis. There are two ADP receptors identified in platelets, ubiquitous P2Y1, and platelet-specific P2Y12. We detected P2Y1 expression in HEL cells stably transformed with an empty vector (HEL/CV), HEL/EDG6, and platelets. In contrast, P2Y12 was detected in HEL/EDG6 and platelets, but not in HEL/CV. […] The low responsiveness of the particles to ADP thus is likely due to desensitization of the ADP receptors, since the particles were prepared from a long-term culture and had been inevitably exposed to cellular components during culture. Alternatively the density of the particles may not have been high enough to exert a positive feedback amplified by mediators released from nearby particles.
Isolation of platelets and platelet-like particles: Blood from healthy donors was collected into centrifuge tubes containing 20 mM sodium dyhydrogenphosphate dehydrate, 17 mM citric acid, 90 mM sodium citrate, and 13 mM Dextrose. HEL/S1P4 cells were cultured until cells released cytoplasmic particles (typically 10-18 days). Preparations were centrifuged at 200 g for 15 minutes. Supernatants obtained were centrifuged at 1600 g for 15 minutes. Sediments containing platelets or platelet-like particles were used in the experiments.
PF4 release: Platelet-like particles were suspended in Dulbecco's modified Eagle medium (DMEM) and stimulated with 100 nM PMA or 50 μM ADP for 10 minutes. […] Platelet factor 4 in supernatants was measured with ZymutestPF4 enzyme-linked immunosorbent assay (Hyphen BioMed, France).

HEL/EDG6 cells [2] = assay: morphogenesis assay, HEL/EDG6; format: cell-based, human; settings: 72 hours
Method: (§1) To obtain an insight into potential mechanisms, we treated HEL/EDG6 and HEL/CV with a variety of cytoskeletal modulators in the presence of PMA. […] To test if suppression of the Rho-kinase pathway is responsible for the formation of cytosolic extensions, the cells were treated with C3 exoenzyme, a Rho inhibitor, before PMA treatment. […] Alternatively, activation of other Rho family GTPases might cause the process formation, since reciprocal regulation between Rho and Rac/Cdc42 is observed in some cell types [E. E. Sandera, et al., (1999)]. Activation of Rho, Rac, and Cdc42, were investigated in HEL/CV and HEL/EDG6 after serum starvation and subsequent stimulation with S1P.

HEL cells = assay: morphogenesis assay, HEL parental cells; format: cell-based, human; settings: PMA 10 nM, 72 hours
From the text: Small particles (arrowhead) and a particle about to bud off from the cytosolic extension (arrow) are seen in HEL/S1P4 treated with PMA.
As reported, HEL parental cells develop into polyploidal large adherent cells with PMA treatment. […] Depositions of small particles and particles about to bud off from the end of the projections were also observed (FIG. 7). […] The observed prominent change of phenotype, thus can potentially be attributed to a rapid accumulation of S1P after treatment of PMA. As PMA is a pleiotropic substance, it is not easy to elucidate direct roles of sphingosine kinase in the phenomena.
Morphogenesis assay: Ten million cells were plated on a 24-well plate with or without 30 μM of the Rho-kinase inhibitor Y27632 (Calbiochem, CA). PMA (10 nM final) was added to the culture 30 minutes after plating. Cells were cultured for 72 hours and photographed. For studies using C3 exoenzyme, 2×10^5 cells in 0.5 ml culture medium were plated on a 24-well plate with or without 3 μg/ml of C3 exsoenzyme (Upstate, N.Y.), and cultured overnight. Fresh culture medium containing PMA and C3 exoenzyme was added to each well to give final PMA and C3 exoenzyme concentrations at 10 nM and 3 μg/ml, respectively. Cells were cultured for 72 hours and photographed.

[3] = test system: CD34+ hematopoietic progenitor cells; assay: megakaryocyte colony formation assay; format: cell-based, human
Method: Mean colony number per well of CD41 positive (CFU-MK) and negative (non-MK) colonies are plotted with SD (n=4 to 8, left panels). […] The experiment was repeated twice with each progenitor and obtained similar results. # • (B) Megakaryocyte differentiation was induced for 12 days from the CD34^+ progenitor cells and the cells were separated for CD41 expression. RNAs from non-differentiated cells (Day 0), differentiated cells (Day 12), and peripheral platelets were analyzed for expression of S1P receptors by RT-PCR. Expression of 2-microglobulin is shown as an internal control.
S1P was added to a megakaryocyte colony formation assay using CD34^+ hematopoietic progenitor cells in semi-solid culture. […] In order to examine the expression pattern of each S1P receptor during the in vitro maturation of megakaryocytes, CD34^+ progenitor cells were cultured in a liquid medium defined for megakaryocyte development, sorted for CD41 expression on day 12 of the culture, and subjected to RT-PCR analysis. Expression of S1P5 receptor in CD34^+ cells on day 0 was low and S1P1, S1P2, S1P3, and EDG6 were not detectable after 40 cycles (FIG. 6B). […] The pattern matched, although with different relative band intensities for EDG6 and S1P2, with the one seen in the platelet sample. […] The exact mechanisms by which S1P affects the differentiation however, remain to be elucidated. Among the receptors for S1P, we were most interested in the function of EDG6 in megakaryocytopoiesis, because EDG6 is expressed in the lung, and the lung is the second most prominent site of platelet production in body with a large population of terminally differentiated megakaryocytes in pulmonary microvessels. […]
Colony formation assay and preparation of CD41^+ cells: Cord blood CD34^+ cells and bone marrow CD34^+ cells (Bio Whittaker, Md.) were cultured in serum-free Iscove's modified Dulbecco's medium for 2 days. […] The chambers were incubated at 37° C. in a 5% CO2 atmosphere for 12 days then megakaryocyte colonies (CFU-MK) were stained for CD41 and scored following the manufacturer's procedure. […]

HEL/EDG6 cells [4] = assay: Rho, Rac and cdc42 assays, HEL/EDG6; format: cell-based, human; settings: HEL/EDG6, serum starvation, 1 μM S1P 1 minute
Method: as §1
(§2) Rho, Rac and cdc42 assays: Cells (5×10^6 for Cdc42 and Rac, 1×10^7 for Rho) were harvested and lysed with 50 mM Tris (pH 7.5), 100 mM NaCl, 1% Triton X-100, 5 mM MgCl2 containing protease inhibitors (Complete™, EDTA-free, Roche Diagnostics, Germany). Cell lysates were clarified by centrifugation at 15000 g at 4° C. for 5 minutes, and incubated with PAK-1 PBD agarose, Rhotekin RBD agarose (Upstate, N.Y.) and GST-WASP GBD beads idndly provided by Tatsuo Kinashi, Kyoto University) at 4° C. for 45 minutes with constant rotation. […] The amounts of Rho, Rac, cdc42, and WASP in 20 μg of whole cell lysates were also analyzed by Western Blot. After incubating with HRP-conjugated secondary antibodies, the blots were developed with ECL-Plus (Amersham Biosciences, UK). For examination of Rho, Rac and cdc42 responses to S1P treatment, cells were maintained in RPMI1640 containing 0.1% fatty-acid free BSA (Sigma) overnight. Cells were harvested and suspended in PBS, and stimulated with 1 μM S1P at 37° C. for 1 minute before cell lysis. Rho, Rac, and cdc42 in 20 μg of the whole cell lysates were also analyzed by Western blot for examination of protein expression. WASP in 20 μg of the whole cell lysates was detected using an anti-WASP antibody (Sigma, Mo.).

HEL/CV cells [5] = assay: Rho, Rac and cdc42 assays, HEL/CV; format: cell-based, human; settings: serum starvation, 1 μM S1P 1 minute
Method: as §1, §2

Edg-6 [6] = biological target: T1, Edg-6 (Homo sapiens, UniProt O95977); settings: Edg-6-transfected CHO and K562 cells; cited from earlier work
T1 construct: host or cells: Edg-6-transfected Chinese hamster ovary (CHO) cells and K562 cells
T1 sequence (O95977 1-384): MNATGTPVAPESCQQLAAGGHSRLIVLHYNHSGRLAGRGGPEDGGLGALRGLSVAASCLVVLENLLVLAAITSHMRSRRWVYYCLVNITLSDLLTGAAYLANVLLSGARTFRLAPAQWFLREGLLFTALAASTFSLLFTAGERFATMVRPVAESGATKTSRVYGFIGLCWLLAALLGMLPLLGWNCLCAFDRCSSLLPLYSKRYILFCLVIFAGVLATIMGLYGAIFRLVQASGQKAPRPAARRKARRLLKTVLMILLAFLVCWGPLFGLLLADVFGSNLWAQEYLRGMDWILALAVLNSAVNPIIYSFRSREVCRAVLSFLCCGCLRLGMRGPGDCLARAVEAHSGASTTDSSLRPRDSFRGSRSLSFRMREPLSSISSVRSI

Edg-6 [7] = biological target: T1, Edg-6; settings: cited from earlier work; for increase in cytosolic Ca(2+) concentration: Edg-6-transfected CHO cells compared with vector-transfected cells
HEL/CV cells [8] = assay: morphogenesis assay, HEL/CV; format: cell-based, human; settings: with PMA 10 nM, Y27632 30 μM or C3 exoenzyme 3 μg/ml, 72 hours
Method: as §1

Nc1ncnc2c1ncn2[C@@H]1O[C@H](COP(=O)(O)OP(=O)(O)O)[C@@H](O)[C@H]1O [ADP]
release of Platelet Factor IV (PF4) [1]: only minor amounts

CCCCCCCCCCCCCC(=O)O[C@@H]1[C@@H](C)[C@@]2(O)[C@@H](C=C(CO)C[C@]3(O)C(=O)C(C)=C[C@@H]23)[C@@H]2C(C)(C)[C@]12OC(C)=O [PMA]
release of Platelet Factor IV (PF4) [1]: significant amounts | cell morphology after PMA treatment (HEL/EDG6 cells [2]; HEL/EDG6, PMA 10 nM): formation of polyploidal large adherent cells with extended cytoplasmic projections resembling megakaryocyte processes | cell morphology after PMA treatment (HEL cells): induced large adherent cells

CCCCCCCCCCCCC/C=C/[C@@H](O)[C@@H](N)COP(=O)(O)O [S1P, sphingosine 1-phosphate]
number of megakaryocyte colony forming units (CFU-MK) ([3]; 10 μM S1P at beginning of culture, CD34+ cells from bone marrow and cord blood, 12 days): significantly reduced | CFU-nonMK numbers ([3]; 10 μM S1P, CD34+ cells from bone marrow and cord blood): remained unchanged or increased slightly | % CFU-MK ([3]; 10 μM S1P, cord blood or bone marrow CD34+ cells, Student's t-test): Significantly lower | GTP-Rac (HEL/EDG6 cells [4]): up-regulation | GTP-Cdc42 (HEL/EDG6 cells [4]; data not shown): increased | GTP-Rho (HEL/EDG6 cells [4]; data not shown): decreased | GTP-Rac (HEL/CV cells [5]): up-regulation | GTP-Cdc42 increase (HEL/CV cells [5]; data not shown): not in HEL/CV cells | GTP-Rho decrease (HEL/CV cells [5]; data not shown): not in HEL/CV cells | displacement of [(3)H]S1P binding (Edg-6 [6]): displaced the [(3)H]S1P binding | increase in cytosolic Ca(2+) concentration (Edg-6 [7]): clearly enhanced

CCCCCCCCCCCCC/C=C/[C@@H](O)[C@@H](N)COP(=O)([O-])OCC[N+](C)(C)C [SPC]
displacement of [(3)H]S1P binding (Edg-6 [6]): displaced the [(3)H]S1P binding | increase in cytosolic Ca(2+) concentration (Edg-6 [7]): clearly enhanced

C[C@@H](N)[C@H]1CC[C@H](C(=O)Nc2ccncc2)CC1 [Y27632]
cytosolic extensions / morphology with cytoskeletal modulator (HEL/CV cells [8]): induced cytosolic extensions | cytosolic extensions / morphology with cytoskeletal modulator (HEL/EDG6 cells [2]; HEL/EDG6, with PMA 10 nM, Y27632 30 μM or C3 exoenzyme 3 μg/ml): did not induce any further effect

lysophosphatidic acid [LPA]
displacement of [(3)H]S1P binding (Edg-6 [6]): inactive | increase in cytosolic Ca(2+) concentration (Edg-6 [7]): without change

pertussis toxin
effect on lipid-induced actions (S1P, SPC) (Edg-6 [7]; CHO and K562 cells expressing Edg-6, pertussis toxin treatment): markedly suppressed

thrombin
release of Platelet Factor IV (PF4) [1]: significant amounts
